The values below come from patent US9193728B2, “Fused tetracyclic pyrido [4,3-B] indole and pyrido [3,4-B] indole derivatives and methods of use” (Medivation Technologies, Inc., priority 2010, dated 2015).

The target of experiment [1] is T1, human recombinant histamine H1 receptor (Homo sapiens, UniProt P35367).
T1 construct: expressed in transfected cells; host or cells: CHO-K1
In words: Histamine H1 radioligand binding ([3H]Pyrilamine). The settings on record: 1.2 nM [3H]Pyrilamine; for inhibition at 0.1 µM / Histamine Binding (0.1 μM) H1, percentage inhibition: compound at 0.1 μM; for inhibition at 0.1 µM: read-out: Histamine Binding (0.1 μM) H1, percentage inhibition. The protocol: To evaluate in radioligand binding assays the activity of compounds of the invention, human recombinant histamine H1 receptor expressed in Chinese hamster ovary (CHO) K1 cells (De Backer, M. et al, Biochem. Biophys. Res. Comm. 197(3):1601, 1993) in a modified Tris-HCl buffer (50 mM Tris-HCl, pH 7.4, 2 mM MgCl2, 100 mM NaCl, 250 mM Sucrose) was used. Compounds of the invention were incubated with 1.2 nM [^3H]Pyrilamine for 180 min. at 25° C. Non-specific binding was estimated in the presence of 1 μM Pyrilamine. Receptor proteins were filtered and washed, the filters were then counted to determine [^3H]Pyrilamine specifically bound. Compounds were screened at 1 μM or lower, using 1% DMSO as vehicle. Biochemical assay results are presented as the percent inhibition of specific binding in Table 2.

In experiment [2] the target is T2, human recombinant histamine H2 receptor (Homo sapiens, UniProt P25021).
T2 construct: expressed in transfected cells; host or cells: CHO-K1
In words: Histamine H2 radioligand binding ([125I]Aminopotentidine). The settings on record: compound at 1 μM; 0.1 nM [125I]Aminopotentidine; read-out: Histamine Binding (1 μM) H2, percentage inhibition. The protocol:
To evaluate in radioligand binding assays the activity of compounds of the invention, human recombinant histamine H2 receptor expressed in Chinese hamster ovary (CHO) K1 cells (Ruat, M., Proc. Natl. Acad. Sci. USA. 87(5):1658, 1990) in a 50 mM Phosphate buffer, pH 7.4 was used. Compounds of the invention were incubated with 0.1 nM [^125I]Aminopotentidine for 120 min. at 25° C. Non-specific binding was estimated in the presence of 3 μM Tiotidine. Receptor proteins were filtered and washed, the filters were then counted to determine [^125I]Aminopotentidine specifically bound. Compounds were screened at 1 μM or lower, using 1% DMSO as vehicle. Biochemical assay results are presented as the percent inhibition of specific binding in Table 2.

Experiment [3] concerns the target T3, human recombinant serotonin (5-Hydroxytryptamine) 5-HT6 receptor (Homo sapiens, UniProt P50406).
T3 construct: expressed in transfected cells; host or cells: HeLa
In words: Serotonin 5-HT6 radioligand binding ([3H]LSD). The settings on record: for inhibition at 0.1 µM / Serotonin (0.1 μM) 5-HT6, percentage inhibition of ligand binding: compound at 0.1 μM; for inhibition at 0.1 µM: read-out: Serotonin (0.1 μM) 5-HT6, percentage inhibition of ligand binding. As to the method:
To evaluate in radioligand binding assays the activity of compounds of the invention, human recombinant serotonin (5-Hydroxytryptamine) 5-HT6 receptor expressed in human HeLa cells (Monsma, F. Jr. et al, Mol. Pharmacol. 43:320, 1993) in a modified Tris-HCl buffer (50 mM Tris-HCl, pH 7.4, 150 mM NaCl, 2 mM Ascorbic Acid, 0.001% BSA) was used. Compounds of the invention were incubated with 1.5 nM [3H]Lysergic acid diethylamide (LSD) for 120 min. at 37° C. Non-specific binding was estimated in the presence of 5 μM Serotonin (5-HT). Receptor proteins were filtered and washed, the filters were then counted to determine [3H]LSD specifically bound. Compounds were screened at 1 μM or lower, using 1% DMSO as vehicle. Biochemical assay results are presented as the percent inhibition of specific binding in Table 4.

For experiment [4], the target named is T4, human recombinant serotonin (5-Hydroxytryptamine) 5-HT7 receptor (Homo sapiens, UniProt P34969).
T4 construct: expressed in transfected cells; host or cells: CHO
As to the kind of experiment: Serotonin 5-HT7 radioligand binding ([3H]LSD). The settings on record: for inhibition at 0.1 µM / Serotonin (0.1 μM) 5-HT7, percentage inhibition of ligand binding: compound at 0.1 μM; for inhibition at 0.1 µM: read-out: Serotonin (0.1 μM) 5-HT7, percentage inhibition of ligand binding. The protocol:
To evaluate in radioligand binding assays the activity of compounds of the invention, human recombinant serotonin (5-Hydroxytryptamine) 5-HT7 receptor expressed in Chinese hamster ovary (CHO) cells (Roth, B. et al, J. Pharmacol. Exp. Ther. 268:1403, 1994; Shen, Y. et al, J. Biol. Chem. 268:18200, 1993) in a modified Tris-HCl buffer (50 mM Tris-HCl, pH 7.4, 10 mM MgCl2, 0.5 mM EDTA) was used. Compounds of invention were incubated with 5.5 nM [^3H]Lysergic acid diethylamide (LSD) for 120 min. at 25° C. Non-specific binding was estimated in the presence of 10 μM Serotonin (5-HT). Receptor proteins were filtered and washed, the filters were then counted to determine [^3H]LSD specifically bound. Compounds were screened at 1 μM or lower, using 1% DMSO as vehicle. Biochemical assay results are presented as the percent inhibition of specific binding in Table 4.

Experiment [5] addresses T5, human recombinant adrenergic α2C receptor (Homo sapiens, UniProt P18825).
T5 construct: expressed in transfected cells; host or cells: insect Sf9 cells
T5 sequence (P18825 1-462): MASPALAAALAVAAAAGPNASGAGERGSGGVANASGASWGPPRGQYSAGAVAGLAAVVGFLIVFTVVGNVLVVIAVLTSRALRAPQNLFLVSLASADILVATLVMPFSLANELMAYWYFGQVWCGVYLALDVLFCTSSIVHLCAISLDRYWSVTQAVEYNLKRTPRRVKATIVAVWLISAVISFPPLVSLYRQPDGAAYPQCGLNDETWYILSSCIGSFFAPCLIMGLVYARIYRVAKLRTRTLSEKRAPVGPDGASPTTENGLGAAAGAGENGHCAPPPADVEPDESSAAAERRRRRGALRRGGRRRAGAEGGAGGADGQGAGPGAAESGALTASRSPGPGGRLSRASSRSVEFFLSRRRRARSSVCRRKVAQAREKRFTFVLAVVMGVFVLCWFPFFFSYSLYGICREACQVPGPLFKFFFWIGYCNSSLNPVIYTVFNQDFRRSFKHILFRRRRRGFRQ
As to the kind of experiment: Adrenergic α2C radioligand binding ([3H]MK-912). To be noted: compound at 0.1 μM; for inhibition at 0.1 µM: read-out: Adrenergic (0.1 μM) a2C, percentage inhibition of ligand binding. The protocol: To evaluate in radioligand binding assays the activity of compounds of the invention, human recombinant adrenergic α2C receptor expressed in insect Sf9 cells (Uhlen, S. et al, J. Pharmacol. Exp. Ther. 271:1558, 1994) in a modified Tris-HCl buffer (50 mM Tris-HCl, pH 7.4, 12.5 mM MgCl2, 2 mM EDTA) was used. Compounds of the invention were incubated with 1 nM [^3H]MK-912 for 60 min. at 25° C. Non-specific binding was estimated in the presence of 10 μM WB-4101. Receptor proteins were filtered and washed, the filters were then counted to determine [^3H]MK-912 specifically bound. Compounds were screened at 1 μM or lower, using 1% DMSO as vehicle. Biochemical assay results are presented as the percent inhibition of specific binding in Table 3.

The structures appear in SMILES notation.

By inhibition is commonly meant the relative decrease from the control value, in per cent.

T4 sequence (P34969 whole entry): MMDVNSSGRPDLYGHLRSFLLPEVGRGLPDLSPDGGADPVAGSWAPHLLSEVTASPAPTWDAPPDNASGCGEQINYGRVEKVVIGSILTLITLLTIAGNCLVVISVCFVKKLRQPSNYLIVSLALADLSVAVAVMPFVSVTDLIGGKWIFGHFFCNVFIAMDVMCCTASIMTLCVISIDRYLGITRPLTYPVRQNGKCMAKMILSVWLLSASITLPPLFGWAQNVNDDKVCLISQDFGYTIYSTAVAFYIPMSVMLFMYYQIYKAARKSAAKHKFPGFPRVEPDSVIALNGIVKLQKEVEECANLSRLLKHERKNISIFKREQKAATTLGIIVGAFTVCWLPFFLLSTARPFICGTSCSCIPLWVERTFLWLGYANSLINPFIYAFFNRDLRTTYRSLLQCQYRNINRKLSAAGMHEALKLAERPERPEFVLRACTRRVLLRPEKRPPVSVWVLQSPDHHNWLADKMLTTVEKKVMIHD
T3 sequence (P50406 whole entry): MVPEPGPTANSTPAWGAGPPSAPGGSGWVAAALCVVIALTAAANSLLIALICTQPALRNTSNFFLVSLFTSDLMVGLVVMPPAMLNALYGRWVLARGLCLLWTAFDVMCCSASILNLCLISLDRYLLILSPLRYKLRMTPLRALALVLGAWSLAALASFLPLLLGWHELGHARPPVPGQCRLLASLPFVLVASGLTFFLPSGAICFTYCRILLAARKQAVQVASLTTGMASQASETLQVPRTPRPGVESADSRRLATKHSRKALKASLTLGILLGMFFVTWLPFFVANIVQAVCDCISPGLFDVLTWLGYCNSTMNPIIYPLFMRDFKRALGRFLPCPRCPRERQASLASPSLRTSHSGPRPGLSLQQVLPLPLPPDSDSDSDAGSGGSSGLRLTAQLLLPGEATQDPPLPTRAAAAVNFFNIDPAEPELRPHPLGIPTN
T1 sequence (P35367 whole entry): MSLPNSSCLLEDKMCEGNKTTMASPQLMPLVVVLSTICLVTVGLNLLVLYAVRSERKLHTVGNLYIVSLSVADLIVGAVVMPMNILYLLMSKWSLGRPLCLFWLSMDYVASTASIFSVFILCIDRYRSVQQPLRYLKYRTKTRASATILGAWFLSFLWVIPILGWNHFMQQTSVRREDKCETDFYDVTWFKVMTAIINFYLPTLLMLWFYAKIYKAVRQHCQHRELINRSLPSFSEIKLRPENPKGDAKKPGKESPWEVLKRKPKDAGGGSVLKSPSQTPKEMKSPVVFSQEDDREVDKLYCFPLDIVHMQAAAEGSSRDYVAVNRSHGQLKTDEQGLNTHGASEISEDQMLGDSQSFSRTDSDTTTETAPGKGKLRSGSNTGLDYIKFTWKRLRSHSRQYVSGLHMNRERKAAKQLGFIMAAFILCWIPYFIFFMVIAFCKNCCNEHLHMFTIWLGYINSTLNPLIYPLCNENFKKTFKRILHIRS
T2 sequence (P25021 whole entry): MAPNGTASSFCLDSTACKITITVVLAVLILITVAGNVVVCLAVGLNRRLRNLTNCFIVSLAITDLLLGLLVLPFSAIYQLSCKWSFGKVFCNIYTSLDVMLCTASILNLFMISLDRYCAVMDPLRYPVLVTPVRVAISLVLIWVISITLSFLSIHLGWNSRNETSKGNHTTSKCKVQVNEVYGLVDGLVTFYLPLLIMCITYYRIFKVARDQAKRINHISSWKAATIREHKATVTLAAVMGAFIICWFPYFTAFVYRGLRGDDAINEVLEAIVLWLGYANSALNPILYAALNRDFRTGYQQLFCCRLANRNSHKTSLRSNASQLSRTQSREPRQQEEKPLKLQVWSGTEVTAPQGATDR

With `Cc1cc2c3c(c1)c1c(n3CC(c3ccc(F)cc3)C2)CCN(C)C1` (stereo not drawn) [Compound 3], the inhibition at 0.1 µM came to 49% in experiment [1] and 80% in experiment [3]. Also, the inhibition at 1 µM was found to be 83% in experiment [1] (compound at 1 μM, read-out: Histamine Binding (1 μM) H1, percentage inhibition); 75% in experiment [2]; 96% in experiment [3] (compound at 1 μM, read-out: Serotonin (1 μM) 5-HT6, percentage inhibition of ligand binding); 53% in experiment [4] (compound at 1 μM, read-out: Serotonin (1 μM) 5-HT7, percentage inhibition of ligand binding).

Turning to `Cc1cc2c3c(c1)c1c(n3CC(C)(c3ccc(C)nc3)OC(C)C2)CCN(C)C1` (stereo not drawn) [Compound 160], the inhibition at 0.1 µM in experiment [1] was 0%; in experiment [5], 16%; in experiment [3] it was -10%; in experiment [4] it was 14%.

In the case of `Cc1cc2c3c(c1)c1c(n3CC(C)(c3ccc(C)nc3)OC2C)CCN(C)C1` (stereo not drawn) [Compound 161], in experiment [1], the “Histamine Binding (0.1 μM) H1, percentage inhibition” value was 13%. Besides, the “Adrenergic (0.1 μM) a2C, percentage inhibition of ligand binding” value in experiment [5] was 3%. For the same molecule, the “Serotonin (0.1 μM) 5-HT6, percentage inhibition of ligand binding” value in experiment [3] was −8%. The “Serotonin (0.1 μM) 5-HT7, percentage inhibition of ligand binding” value in experiment [4] was −8%.

Take `Cc1cc2c3c(c1)c1c(n3C[C@@](C)(c3ccncc3)O[C@H]2C)CCN(C)C1` [Compound 162]: the inhibition at 0.1 µM in experiment [1] is 25%; in experiment [5], 13%; in experiment [3], -8%; in experiment [4] it was 5%.

In the case of `Cc1cc2c3c(c1)c1c(n3C[C@](C)(c3ccncc3)O[C@H]2C)CCN(C)C1` [Compound 163], the inhibition at 0.1 µM is 11% in experiment [1], 12% in experiment [5], 8% in experiment [3] and -3% in experiment [4].

As to `Cc1cc2c3c(c1)c1c(n3CC(C)(c3ccc(C)nc3)OC2C)CCN(C)C1` (stereo not drawn) [Compound 164], in experiment [1], the “Histamine Binding (0.1 μM) H1, percentage inhibition” value is recorded as −5%. In addition, the “Adrenergic (0.1 μM) a2C, percentage inhibition of ligand binding” value in experiment [5] was −4%. In addition, the “Serotonin (0.1 μM) 5-HT6, percentage inhibition of ligand binding” value in experiment [3] is listed as −9%. Further, the “Serotonin (0.1 μM) 5-HT7, percentage inhibition of ligand binding” value in experiment [4] is listed as −12%.

`Cc1cc2c3c(c1)c1c(n3CC(C)(c3ccncc3)OC(C)C2)CCN(C)C1` (stereo not drawn) [Compound 165]: the inhibition at 0.1 µM in experiment [1] was 37%; in experiment [5] it was 20%; in experiment [3] it was 10%; in experiment [4], -2%.
